Broadly, the EC50 is the concentration giving half of the maximal effect.

One series deals with Human Pan T cells. Nature of the series: IL2 & IFN-γ released by human pan T cell (ELISA). Type of series: cell-based. The conditions noted are these: for EC50 / Human Pan T cells EC2x (nM, IL-2): IL-2, anti-CD3/CD28 stimulation, 48 hours; for Human Pan T cells EC2x (nM, IL-2): concentration giving 200% response (2 folds) over DMSO control; for Max fold change: IL-2 response over DMSO control; for Max fold change / efficacy in inducing IL-2 production: human pan T cells. An excerpt:
This example is an assay method that can be used to determine compound effects on IL2 & IFN-γ release using pan T cells and ELISA assay format.
Procedures for Pan T isolation and Reagent preparation (Day 0): • 1. Cell Growth Medium: • RPMI1640: ATCC, Cat# 30-2001 • 10% FBS: Gibco, Cat# 10099141 • 1% Pen-Strep: Gibco, Cat # 15140122 • 1% Non-essential amino: Gibco, Cat #11140050 • Beta- Mercaptoethanol: Gibco, Cat#21985023 • 2. Pan T isolation buffer preparation: • Prepare a solution containing phosphate-buffered saline (PBS), pH 7.2, 0.5% bovine serum albumin (BSA), and 2 mM EDTA by diluting MACS® BSA Stock Solution (# 130-091-376) 20 times with autoMACS® Rinsing Solution. Keep buffer at 4° C. Degas buffer before use, as air bubbles could block the column.
• 3. Thawing of frozen PBMC • 1) Pre-heat medium at 37° C. water bath. • 2) Rapidly thaw cells in 37° C. water bath. • 3) Add the pre-warmed medium into 15 mL tube. Transfer cells to the tube. • 4) 300 × g centrifuge for 8 min. (centrifuge increase 0, decrease 0). • 5) Wash the PBMC using Rinsing buffer. • 6) Centrifuge PBMC at 300 × g for 8 min, wash it twice (centrifuge increase 9, decrease 1). • 7) Resuspend the cells with Pan T cells isolation buffer and count cells number. • 4. Pan T cells isolation: • Cell staining with microbead cocktail • 1) Prepare cells and determine cell number. Filter cells by 70 µm cell strainer. • 2) Resuspend cell pellet in 40 µL of buffer per 10^7 total cells. • 3) Add 10 µL of Pan T Cell Biotin-Antibody Cocktail per 10^7 total cells. • 4) Mix well and incubate for 10 minutes in the refrigerator (ice). • 5) Add 30 µL of buffer per 10^7 total cells. • 6) Add 20 µL of Pan T Cell MicroBead Cocktail per 10^7 total cells. • 7) Mix well and incubate for 15 minutes in the refrigerator (ice). • 8) Proceed to subsequent magnetic cell separation.
Subsequent manual cell separation: • 1) Place LS Column in the magnetic field of a suitable MACS Separator. For details refer to the respective MACS Column data sheet. • 2) Prepare column by rinsing with 3 mL of buffer. • 3) Apply cell suspension onto the column. Collect flow-through, which represents the enriched T cells. • 4) Wash column with 5 mL of buffer. Collect unlabeled cells that pass through, representing the enriched T cells.
Reminder: Always wait until the column reservoir is empty before proceeding to the next step. • 5. Pan T cell FACS: • 1) Take out 50 µL of PBMC and Pan T cells to FACS tubes respectively. • 2) Incubate cells with anti-human CD3/CD4/CD8 antibodies (1 µL/1 µL/1 µL /tube) for 20 min at 4° C. For unstained control, incubate cells with FACS staining buffer. • 3) Wash 2 times with cold staining buffer (PBS with 0.2%BSA and 1 mM EDTA). • 4) Run FACS. Gate CD3^+, CD3^+CD4^+, and CD3^+CD8^+ population for % analysis. • 5) If the purity of Pan T cells is higher than 90%, dilute cell suspension to 1 million cells/mL with the appropriate volume of Cell Culture Media. • 6) Dispense the cell suspension into a sterile, disposable reservoir for future use.
Procedures for preparation of compounds and anti-human CD3/CD28 (Day 0): • 1. Compound preparation • Compound serial dilution (source plate 1000×) • Compounds are solubilized in 100% DMSO to a concentration of 10 mM. Then they were 3-fold serially diluted to 8-point doses. • 4× Compound dose preparation (inter plate: Corning-3599): • Prepare 4× compound solution in culture medium. Pipet up and down. For the ZPE control, prepare 0.4% DMSO (4×) in culture medium. For the HPE control, prepare 0.4 µM of RGT003-026 (4×) in culture medium. • 2. Anti-human CD3 (stock conc. 6.76 mg/ml): stored at 4° C. • 1) Dilute anti-human CD3 with PBS to final conc. of 0.5 µg/mL. • 2) Add 50 µL /well of CD3 to each well, except for the positive and negative control wells. […] Rinse each well twice with 200 µL of sterile PBS each time. • 3. […]
A general note: ELISA stands for enzyme-linked immunosorbent assay.

The nature of series [1]: Metabolic stability in liver microsomes, human (HLM). The series is classed as in vitro ADME. The conditions noted are these: 1 µM compound, NADPH; for half-life at 1 µM: human, liver microsomes, pH 7.4, 0.5 mg/mL protein, read-out: Metabolic Stability T½ (min), HLM. As for the experimental part: This assay is for determining the stability of test compound in liver microsomes. The study will be conducted in accordance with International Bioethical Standards “World Medical Association Declaration of
Human, Sprague Dawley Rat, CD-1 mouse, Beagle Dog and Cynomolgus Monkey Liver Microsomes samples purchased from BD Gentest or RILD.
0.1 M Potassium phosphate buffer, pH 7.4: • Buffer A: 1.0 L of 0.1 M monobasic Potassium Phosphate buffer containing 1.0 mM EDTA • Buffer B: 1.0 L of 0.1 M Dibasic Potassium Phosphate buffer containing 1.0 mM EDTA • Buffer C (K-phosphate buffer): 0.1 M Potassium Phosphate buffer, 1.0 mM EDTA, pH 7.4 by titrating 700 mL of buffer B with buffer A while monitoring the pH meter
• Prepare 3× test compound or positive control solutions: 500 µM spiking solution: add 10 µL of 10 mM DMSO stock solution into 190 µL ACN. • 1.5 µM spiking solution in microsomes (0.75 mg/mL): add 1.5 µL of 500 µM spiking solution and 18.75 µL of 20 mg/mL liver microsomes into 479.75 µL of K-phosphate buffer.
Add 30 µL of 1.5 µM spiking solution containing 0.75 mg/ml microsomes solution to the wells designated for 45 min, 30 min, 15 min, 5 min and 0 min. Pre-incubate the plate at 37° C. for 5 minutes.
Add 15 µL of NADPH stock solution (6 mM) to all of the wells, and start timing. Immediately, add 135 µL of ACN containing IS to the wells designated as Time 0.
At 5 min, 15 min, 30 min and 45 min, add 135 µL of ACN containing IS to the wells, respectively.
After quenching, centrifuge the reaction mixtures at 3220 x g for 10 min.
Transfer 50 µL of the supernatant from each well into a 96-well sample plate containing 50 µL of ultra pure water (Millipore) for LC/MS analysis.
The % parent remaining at each incubation time point is calculated by comparing to the peak area ratio (compound peak area/internal standard peak area) at T0 (0 minute incubation). The ln peak area ratio is plotted against time and the gradient of the line is determined. The half-life and metabolism of compounds is calculated based upon a natural log linear regression of the relative peak areas vs time. The half-life and intrinsic clearance (Clint) in microsomes are calculated using the equations below. • In Vitro T ½ (min) = 0.693/Elimination rate of constant (k) • Clint (µL/min/mg of microsomal protein) = (0.693 / In Vitro T ½) (Incubation Volume/ mg of microsomes)
(Microsomes from liver hold many membrane-bound enzymes, among them those of drug oxidation.)

`CN1CCc2cc(F)c(Nc3ncc(Cl)c(N4C[C@](C)(CC(=O)O)c5ccccc54)n3)cc2C1` (single isomer, unassigned) [Example 5, (R)-2-[1-[5-chloro-2-[(6-fluoro-2-methyl-3,4-dihydro-1H-isoquinolin-7-yl)amino]pyrimidin-4-yl]-3-methyl-indolin-3-yl]acetic acid or (S)-2-[1-[5-chloro-2-[(6-fluoro-2-methyl-3,4-dihydro-1H-isoquinolin-7-yl)amino]pyrimidin-4-yl]-3-methyl-indolin-3-yl]acetic acid]: in the series with Human Pan T cells, the EC50 came to 17.4 nM; the “Human Pan T cells EC2x (nM, IL-2)” value came to 7.5 nM; the Max fold change was found to be 3.88; the “efficacy in inducing IL-2 production” value is reported as “good efficacy”. For the same molecule, the “Metabolic Stability T½ (min), HLM” value in series [1] (0.5 mg/mL protein) is “HLM: 68 min”.

With `COc1cc2c(cc1Nc1ncc(Cl)c(N3CC(C(=O)O)c4ccccc43)n1)CN(C)CC2` (centres unmarked) [Compound 7, reference compound], in the series with Human Pan T cells (Homo sapiens, T-cell), the EC50 was 278 nM. In the series on Human Pan T cells, the “Human Pan T cells EC2x (nM, IL-2)” value is 338 (N = 6) nM and the Max fold change was 3.2 (N = 6). Besides, the half-life at 1 µM in series [1] turned out to be 237 min.

For the molecule `COc1cc2c(cc1Nc1ncc(Cl)c(N3CC(C)(CC(=O)O)c4ccccc43)n1)CN(C)CC2` (single isomer, unassigned) [Example 2, (R)-2-(1-(5-chloro-2-((6-methoxy-2-methyl-1,2,3,4-tetrahydroisoquinolin-7-yl)amino)pyrimidin-4-yl)-3-methylindolin-3-yl)acetic acid or (S)-2-(1-(5-chloro-2-((6-methoxy-2-methyl-1,2,3,4-tetrahydroisoquinolin-7-yl)amino)pyrimidin-4-yl)-3-methylindolin-3-yl)acetic acid], the concentration for a half-maximal effect (EC50) in the series with Human Pan T cells (Homo sapiens, T-cell) turned out to be 16.2 nM. In the series with Human Pan T cells, the “Human Pan T cells EC2x (nM, IL-2)” value was 12.5 (N = 10) nM; the Max fold change is listed as 3.2 (N = 10); the “efficacy in inducing IL-2 production” value is recorded as “good efficacy”. For the same molecule, the half-life at 1 µM in series [1] is 90.8 min.

For `COc1cc2c(cc1Nc1ncc(Cl)c(N3CC(C)(CC(=O)O)c4ccccc43)n1)CN(C)CC2` (centres unmarked) [Example 1, 2-(1-(5-chloro-2-((6-methoxy-2-methyl-1,2,3,4-tetrahydroisoquinolin-7-yl)amino)pyrimidin-4-yl)-3-methylindolin-3-yl)acetic acid], the EC50 in the series with Human Pan T cells (Homo sapiens, T-cell) was found to be 50 nM. Further, in the series on Human Pan T cells, the “Human Pan T cells EC2x (nM, IL-2)” value was 28 (N = 5) nM; the Max fold change is on record as 3.98 (N = 5); the “efficacy in inducing IL-2 production” value is reported as “good efficacy”. Besides, the half-life at 1 µM in series [1] turned out to be 54.4 min.

Turning to `COc1cc2c(cc1Nc1ncc(Cl)c(N3CC(CC(=O)O)c4ccccc43)n1)CN(C)CC2` (centres unmarked) [Compound 8, reference compound], the EC50 with Human Pan T cells (Homo sapiens, T-cell) is 275 nM. Moreover, in the series with Human Pan T cells, the “Human Pan T cells EC2x (nM, IL-2)” value is on record as 240 (N = 2) nM and the Max fold change was 3.29 (N = 2). For the same molecule, the half-life at 1 µM in series [1] is 145 min.

Turning to `COc1cc2c(cc1Nc1ncc(Cl)c(N3CC(C)(CC(=O)O)c4ccc(F)cc43)n1)CN(C)CC2` (centres unmarked) [Compound 10, reference compound], the EC50 with Human Pan T cells (Homo sapiens, T-cell) was 17.4 nM. Further, in the series on Human Pan T cells, the “Human Pan T cells EC2x (nM, IL-2)” value is recorded as 15.6 (N = 5) nM and the Max fold change is on record as 3.05 (N = 5). Besides, the half-life at 1 µM in series [1] came out at 51 min.

For `CN1CCc2cc(F)c(Nc3ncc(Cl)c(N4CC(C)(CC(=O)O)c5ccccc54)n3)cc2C1` (centres unmarked) [Example 4, 2-(1-(5-chloro-2-((6-fluoro-2-methyl-1,2,3,4-tetrahydroisoquinolin-7-yl)amino)pyrimidin-4-yl)-3-methylindolin-3-yl)acetic acid], the EC50 with Human Pan T cells (Homo sapiens, T-cell) is 31.5 nM. Besides, in the series with Human Pan T cells, the “Human Pan T cells EC2x (nM, IL-2)” value is on record as 20.5 (N = 2) nM; the Max fold change is reported as 3.84 (N = 2); the “efficacy in inducing IL-2 production” value was “good efficacy”. The half-life at 1 µM in series [1] stood at 110 min.

Values taken from patent US20230339896A1, “HPK1 INHIBITORS AND USES THEREOF” (QILU REGOR THERAPEUTICS INC., priority 2020, published 2023).
